Experimental data taken from patent publication US20250304549A1, “HYDROXYAMIDE DERIVATIVE AND USE THEREOF” (SICHUAN HUIYU PHARMACEUTICAL CO., LTD., priority 2022, published 2025).
pIC50: −log10 of the molar value. Structures can show the parent of a compound that is named as a salt.

Experiments:
NCI-H1417 cells = experiment: In vitro cell inhibition assay - H1417 cell proliferation (CellTiter-Glo); type: cell-based; conditions: Homo sapiens, NCI-H1417, H1417 small cell lung cancer cell proliferation
Procedure, shortened: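 Cells exposed to 8 compound concentrations (5-fold dilutions) in BEGM with 10% FBS for 7 days at 37° C., 5% CO2. Viable cells measured by CellTiter-Glo luminescence; inhibition versus no-inhibitor and no-cell controls, IC50 fitted.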

NCI-H69 cells = experiment: In vitro cell inhibition assay - NCI-H69 cell proliferation (CellTiter-Glo); type: cell-based; conditions: Homo sapiens, NCI-H69, H69 small cell lung cancer cell proliferation
Procedure, shortened: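 7-day exposure at 37° C., 5% CO2 to compounds serially diluted 5-fold (8 concentrations) in RPMI-640 containing 20% FBS, after overnight attachment at 1×10^3 cells/well. Read-out: CellTiter-Glo luminescence (RLU); IC50 from curve fit of inhibition rate.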

LSD1 = LSD1 (Homo sapiens (Human), UniProt O60341); experiment: In vitro enzyme inhibition assay - LSD1 (HTRF); type: biochemical
NCI-H526 cells = experiment: In vitro cell inhibition assay - NCI-H526 cell proliferation (CellTiter-Glo); type: cell-based; conditions: Homo sapiens, NCI-H526, 120 h, H526 small cell lung cancer cell proliferation, 5 days
Experimental: 6. In Vitro Cell Inhibition Assay—NCI-H526 Cell Proliferation
The inhibitory effect of the compounds on cell proliferation was assessed by detecting the number of viable cells using CellTiter-Glo® reagent. NCI-H526 cells in the logarithmic growth phase were collected and inoculated into transparent bottom 96-well plates at a density 1×10^3 cells per well with 100 μL of medium, and incubated at 37° C., 5% CO2 overnight. The compounds were sequentially diluted in a 5-fold concentration gradient with DMSO to obtain 8 different concentrations. These were then diluted with RPMI-640 (containing 10% FBS) cell culture medium to obtain the compound working solution (2×), which was added to the cell supernatant at 100 μL per well. The incubation continued for 5 days at 37° C., 5% CO2. The plate was then removed and equilibrated at room temperature (25° C.) along with the CellTiter-Glo® mixing reagent for 10-30 minutes; 80 μL of the culture medium was carefully aspirated from each well, and 80 μL of CellTiter-Glo® reagent was added. The cells were thoroughly mixed with the CellTiter-Glo® mixing reagent using a microplate shaker for 2 min. and then incubated at room temperature for 10 min. The 96-well plate was subsequently placed on a multifunctional microplate reader to record the Luminescence values (RLU).
The inhibition rate was calculated using the following formula: […]
Note: ‘Negative’ refers to the group without inhibitors; ‘Blank’ refers to the group without cells.
The IC50 value was determined by fitting the inhibition rate by GraphPad Prism software.

HDAC8 = HDAC8 (Homo sapiens (Human), UniProt Q9BY41); experiment: In vitro enzyme inhibition assay - HDAC (HDAC-Glo I/II), HDAC8; type: biochemical; conditions: read-out: HDAC IC50 (nM) HDAC 8
Sequence of HDAC8 (Q9BY41 whole entry): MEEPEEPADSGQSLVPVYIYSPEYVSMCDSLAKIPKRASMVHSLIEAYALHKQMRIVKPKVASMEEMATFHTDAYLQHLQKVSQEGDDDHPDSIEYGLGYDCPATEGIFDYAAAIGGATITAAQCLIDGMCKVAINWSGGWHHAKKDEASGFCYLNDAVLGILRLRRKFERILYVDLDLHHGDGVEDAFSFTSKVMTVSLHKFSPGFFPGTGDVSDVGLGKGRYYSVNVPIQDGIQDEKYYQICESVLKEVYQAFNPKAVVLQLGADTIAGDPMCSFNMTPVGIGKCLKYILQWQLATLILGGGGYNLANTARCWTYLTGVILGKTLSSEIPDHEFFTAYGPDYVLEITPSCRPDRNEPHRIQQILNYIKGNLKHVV
Experimental: 2. In Vitro Enzyme Inhibition Assay—HDAC
The effect of the compound on the enzymatic activity of pan-HDAC and two isoforms (HDAC1 and HDAC8) was examined using the HDAC-Glo I/II Assay and Screening System assay to assess the level of inhibition of HDAC protease activity and selectivity in each isoform. The proteins and detection reagents were from the HDAC-Glo™ I/II Assay and Screening System (Promega). A 1 mM stock solution of the compound was prepared in DMSO and diluted in a 5-fold gradient to create a series of 8 concentrations, and a specific volume of the highest concentration was diluted 25 times with HDAC Buffer to obtain 4× working solution of the compound. […] The 384-well plate was then read on a multifunctional microplate reader, with the Luminescence channel selected to record Luminescence values (RLU). The inhibition rate was calculated using the following formula: […]
Note: ‘Negative’ refers to the group without the inhibitor; ‘Blank’ refers to the group without the enzyme.
The IC50 value was calculated by fitting the inhibition rate by GraphPad Prism software, employing log (inhibitor) vs. response-Variable Slope (four parameters) model.

pan-HDAC = experiment: In vitro enzyme inhibition assay - HDAC (HDAC-Glo I/II), pan-HDAC; type: biochemical
Procedure, shortened: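 Eight compound concentrations (5-fold gradient; 1 mM DMSO stock) were assayed by HDAC-Glo I/II luminescence. IC50 was obtained by four-parameter fitting.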

SMILES	pIC50 (NCI-H1417 cells)	pIC50 (NCI-H69 cells)	pIC50 (LSD1)	pIC50 (NCI-H526 cells)	IC50 (HDAC8)	IC50 (pan-HDAC)
COc1ccc(-c2cnc(N3CCC(NCc4ccc(CCC(=O)NO)cc4)CC3)c(C#N)c2-c2ccc(C#N)c(F)c2)cc1O [Example 43, 3-(4-((1-(3-Cyano-4-(4-cyano-3-fluorophenyl)-5-(3-hydroxy-4-methoxyphenyl)pyridin-2-yl)piperidin-4-yl)amino)methyl)phenyl)-N-hydroxypropanamide formate]	8.30	7.41	9.21	7.45		
COc1ccc(-c2cnc(N3CCN(CCc4ccc(/C=C/C(=O)NO)cc4)CC3)c(C#N)c2-c2ccc(C#N)c(F)c2)cc1O [Example 49, (E)-3-(4-(2-(4-(3-Cyano-4-(4-cyano-3-fluorophenyl)-5-(3-hydroxy-4-methoxyphenyl)pyridin-2-yl)piperazin-1-yl)ethyl)phenyl)-N-hydroxyacrylamide hydrochloride]	7.10	6.63		6.48		
COc1ccc(-c2cnc(N3CCC(NCc4ccc(CCC(=O)NO)c(C#N)c4)CC3)c(C#N)c2-c2ccc(C#N)c(F)c2)cc1O [Example 193, 3-(2-Cyano-4-((1-(3-cyano-4-(4-cyano-3-fluorophenyl)-5-(3-hydroxy-4-methoxyphenyl)pyridin-2-yl)piperidin-4-yl)amino)methyl) phenyl)-N-hydroxypropanamide formate]	7.90	6.66	8.77		297 nM	8.36 nM
CC(C)(O)COc1ccc(-c2cnc(N3CCC(NCc4ccc(CCC(=O)NO)nc4)CC3)c(C#N)c2-c2ccc(C#N)c(F)c2)cc1O [Example 204, 3-(5-((((1-(3-Cyano-4-(4-cyano-3-fluorophenyl)-5-(3-hydroxy-4-(2-hydroxy-2-methylpropoxy)phenyl)pyridin-2-yl)piperidin-4-yl)amino)methyl)pyridin-2-yl)-N-hydroxypropanamide formate]	8.29	7.05	8.80		26.2 nM	2.37 nM
COc1ccc(-c2cnc(N3CCC(NCc4ccc(CCC(=O)NO)cc4)CC3)c(C)c2-c2ccc(C#N)c(F)c2)cc1O [Example 209, 3-(4-(((1-(4-(4-Cyano-3-fluorophenyl)-5-(3-hydroxy-4-methoxyphenyl)-3-methylpyridin-2-yl)piperidin-4-yl)amino)methyl)phenyl)-N-hydroxypropanamide hydrochloride]	7.84	7.39	9.22		3.09 nM	163 nM
COc1ccc(-c2cnc(N3CCC(NCc4ccc(/C=C/C(=O)NO)cc4C)CC3)c(C#N)c2-c2ccc(C#N)c(F)c2)cc1O [Example 211, (E)-3-(4-(((1-(3-Cyano-4-(4-cyano-3-fluorophenyl)-5-(3-hydroxy-4-methoxyphenyl)pyridin-2-yl)piperidin-4-yl)amino)methyl)-3-methylphenyl)-N-hydroxyacrylamide formate]	7.97	6.72	9.51		83.5 nM	2.04 nM
C/C(=C\C(=O)NO)c1ccc(CNC2CCN(c3ncc(-c4ccc(OCC(C)(C)O)c(O)c4)c(-c4ccc(C#N)c(F)c4)c3C#N)CC2)cc1 [Example 212, (E)-3-(4-(((1-(3-Cyano-4-(4-cyano-3-fluorophenyl)-5-(3-hydroxy-4-(2-hydroxy-2-methylpropoxy)phenyl)pyridin-2-yl)piperidin-4-yl)amino)methyl)phenyl)-N-hydroxybut-2-enamide hydrochloride]	8.94	7.27	10.40		41.5 nM	6.55 nM
CC(C)(O)COc1ccc(-c2cnc(N3CCC(NCc4ccc(/C=C/C(=O)NO)nc4)CC3)c(CC#N)c2-c2ccc(C#N)c(F)c2)cc1O [Example 221, (E)-3-(5-(((1-(4-(4-Cyano-3-fluorophenyl)-3-(cyanomethyl)-5-(3-hydroxy-4-(2-hydroxy-2-methylpropoxy)phenyl)pyridin-2-yl)piperidin-4-yl)amino)methyl)pyridin-2-yl)-N-hydroxyacrylamide formate]	7.77	7.71	7.77	7.54		2.2 nM
COc1ccc(-c2c(C#N)cc(N3CCC(NCc4cnc(/C=C/C(=O)NO)nc4)CC3)nc2-c2ccc(C#N)c(F)c2)cc1O [Example 234, (E)-3-(5-(((1-(4-Cyano-6-(4-cyano-3-fluorophenyl)-5-(3-hydroxy-4-methoxyphenyl)pyridin-2-yl)piperidin-4-yl)amino)methyl)pyrimidin-2-yl)-N-hydroxyacrylamide formate]	7.82	7.11	8.97		51.1 nM	13.3 nM
O=C(CCCCCCC(=O)Nc1ccccc1)NO [SAHA, Vorinostat, reference compound]				6.40		

Now from value to compound:

pIC50 (NCI-H1417 cells)	pIC50 (NCI-H69 cells)	pIC50 (LSD1)	pIC50 (NCI-H526 cells)	IC50 (HDAC8)	IC50 (pan-HDAC)	SMILES
6.92	5.99	8.96		543 nM	7.27 nM	CNc1ccc(-c2cnc(N3CCC(NCc4ccc(CCC(=O)NO)cn4)CC3)c(C#N)c2-c2ccc(C#N)c(F)c2)cc1O [Example 194, 3-(6-((1-(3-Cyano-4-(4-cyano-3-fluorophenyl)-5-(3-hydroxy-4-(methylamino)phenyl)pyridin-2-yl)piperidin-4-yl)amino)methyl) pyridin-3-yl)-N-hydroxypropanamide hydrochloride]
7.28	5.78	8.39		172 nM	11.8 nM	N#Cc1ccc(-c2c(-c3ccc(C(F)(F)F)c(O)c3)cnc(N3CCC(NCc4cnc(CCC(=O)NO)nc4)CC3)c2C#N)cc1F [Example 195, 3-(5-(1-(3-Cyano-4-(4-cyano-3-fluorophenyl)-5-(3-hydroxy-4-trifluoromethylphenyl)pyridin-2-yl)piperidin-4-ylamino)methyl) pyrimidin-2-yl)-N-hydroxypropanamide formate]
7.41	7.08	8.18		26.5 nM	5.69 nM	CNc1ccc(-c2cnc(N3CCC(NCc4cnc(/C=C/C(=O)NO)nc4)CC3)c(C#N)c2-c2ccc(C#N)c(F)c2)cc1O [Example 196, (E)-3-(5-(((1-(3-Cyano-4-(4-cyano-3-fluorophenyl)-5-(3-hydroxy-4-(methylamino)phenyl)pyridin-2-yl)piperidin-4-yl)amino)methyl)pyrimidin-2-yl)-N-hydroxyacrylamide hydrochloride]
8.49	8.34	9.00	7.77		4.37 nM	CC(C)(O)COc1ccc(-c2cnc(N3CCC(NC(C)(C)c4ccc(/C=C/C(=O)NO)cc4)CC3)c(C#N)c2-c2ccc(C#N)c(F)c2)cc1O [Example 223, (E)-3-(4-(2-((1-(3-Cyano-4-(4-cyano-3-fluorophenyl)-5-(3-hydroxy-4-(2-hydroxy-2-methylpropoxy)phenyl)pyridin-2-yl)piperidin-4-yl)amino)propan-2-yl)phenyl)-N-hydroxyacrylamide hydrochloride]
8.88	5.94	10.15		140 nM	82.4 nM	N#Cc1ccc(-c2c(-c3ccc(OCCc4ccc(/C=C/C(=O)NO)cc4)c(O)c3)cnc(N3CCC(N)CC3)c2C#N)cc1F [Example 231, (E)-3-(4-(2-(4-(6-(4-Aminopiperidin-1-yl)-5-cyano-4-(4-cyano-3-fluorophenyl)pyridin-3-yl)-2-hydroxyphenoxy)ethyl)phenyl)-N-hydroxyacrylamide hydrochloride]
